From ChEMBL document CHEMBL4043296 (J Med Chem, 2018) come the findings set out here.

For test [1], the target named is T1, Muscarinic acetylcholine receptor M2 (Homo sapiens, UniProt P08172).
T1 sequence (P08172 whole entry): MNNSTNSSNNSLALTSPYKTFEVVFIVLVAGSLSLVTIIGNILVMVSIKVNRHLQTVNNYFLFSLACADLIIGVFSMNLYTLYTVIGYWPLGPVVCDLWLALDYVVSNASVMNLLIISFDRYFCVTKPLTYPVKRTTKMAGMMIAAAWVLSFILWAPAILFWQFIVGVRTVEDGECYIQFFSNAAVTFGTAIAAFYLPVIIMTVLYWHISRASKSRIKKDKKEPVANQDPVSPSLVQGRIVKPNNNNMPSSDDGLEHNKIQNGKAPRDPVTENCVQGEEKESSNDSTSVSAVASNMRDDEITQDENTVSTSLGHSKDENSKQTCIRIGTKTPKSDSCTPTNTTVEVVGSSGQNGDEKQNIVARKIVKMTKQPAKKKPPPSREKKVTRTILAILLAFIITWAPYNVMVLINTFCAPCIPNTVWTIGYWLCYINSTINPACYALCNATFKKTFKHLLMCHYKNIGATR
The test can be described thus: Displacement of [3H]NMS from human muscarinic M2 receptor expressed in CHO cell membranes after 2 hrs by liquid scintillation counting method.

The species named for test [2] is Homo sapiens. The experiment in a line: Selectivity ratio of Ki for human dopamine D2 receptor to Ki for human dopamine D4 receptor.
For test [3], the target named is T2, Muscarinic acetylcholine receptor M1 (Homo sapiens, UniProt P11229).
T2 sequence (P11229 whole entry): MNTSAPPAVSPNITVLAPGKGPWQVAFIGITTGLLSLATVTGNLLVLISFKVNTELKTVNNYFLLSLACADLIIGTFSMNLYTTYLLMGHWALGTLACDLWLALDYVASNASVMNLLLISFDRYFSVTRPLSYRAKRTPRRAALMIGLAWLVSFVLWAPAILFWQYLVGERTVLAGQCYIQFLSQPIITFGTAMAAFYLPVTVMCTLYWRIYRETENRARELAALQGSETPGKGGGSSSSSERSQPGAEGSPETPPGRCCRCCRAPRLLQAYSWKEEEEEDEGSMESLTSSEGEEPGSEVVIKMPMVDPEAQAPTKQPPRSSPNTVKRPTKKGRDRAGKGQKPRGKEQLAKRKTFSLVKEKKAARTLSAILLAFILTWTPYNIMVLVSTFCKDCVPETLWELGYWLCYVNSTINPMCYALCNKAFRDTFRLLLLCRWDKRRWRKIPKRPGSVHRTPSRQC
The experiment in a line: Displacement of [3H]NMS from human muscarinic M1 receptor expressed in CHO cell membranes after 2 hrs by liquid scintillation counting method.

In test [4] the target is Muscarinic acetylcholine receptor M3 (Homo sapiens, UniProt P20309). The test can be described thus: Displacement of [3H]NMS from human muscarinic M3 receptor expressed in CHO cell membranes after 2 hrs by liquid scintillation counting method.
Test [5] has as its target T3, D(4) dopamine receptor (Homo sapiens, UniProt P21917).
T3 sequence (P21917 whole entry): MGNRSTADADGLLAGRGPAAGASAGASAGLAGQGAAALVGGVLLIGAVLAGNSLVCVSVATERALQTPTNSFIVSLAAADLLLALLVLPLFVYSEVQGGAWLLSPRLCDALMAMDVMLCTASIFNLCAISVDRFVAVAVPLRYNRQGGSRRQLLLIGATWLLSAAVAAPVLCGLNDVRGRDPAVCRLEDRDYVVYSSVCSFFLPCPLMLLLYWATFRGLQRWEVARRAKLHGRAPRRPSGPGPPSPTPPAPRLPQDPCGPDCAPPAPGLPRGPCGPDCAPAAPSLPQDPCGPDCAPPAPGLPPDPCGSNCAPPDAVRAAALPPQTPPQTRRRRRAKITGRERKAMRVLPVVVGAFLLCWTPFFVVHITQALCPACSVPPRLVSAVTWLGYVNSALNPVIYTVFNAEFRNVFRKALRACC
The experiment in a line: Displacement of [3H]N-methylspiperone from human dopamine D4 receptor expressed in HEK293 cell membranes after 1 hr by scintillation counting method.

Test [6] has as its target T4, Muscarinic acetylcholine receptor M5 (Homo sapiens, UniProt P08912).
T4 sequence (P08912 whole entry): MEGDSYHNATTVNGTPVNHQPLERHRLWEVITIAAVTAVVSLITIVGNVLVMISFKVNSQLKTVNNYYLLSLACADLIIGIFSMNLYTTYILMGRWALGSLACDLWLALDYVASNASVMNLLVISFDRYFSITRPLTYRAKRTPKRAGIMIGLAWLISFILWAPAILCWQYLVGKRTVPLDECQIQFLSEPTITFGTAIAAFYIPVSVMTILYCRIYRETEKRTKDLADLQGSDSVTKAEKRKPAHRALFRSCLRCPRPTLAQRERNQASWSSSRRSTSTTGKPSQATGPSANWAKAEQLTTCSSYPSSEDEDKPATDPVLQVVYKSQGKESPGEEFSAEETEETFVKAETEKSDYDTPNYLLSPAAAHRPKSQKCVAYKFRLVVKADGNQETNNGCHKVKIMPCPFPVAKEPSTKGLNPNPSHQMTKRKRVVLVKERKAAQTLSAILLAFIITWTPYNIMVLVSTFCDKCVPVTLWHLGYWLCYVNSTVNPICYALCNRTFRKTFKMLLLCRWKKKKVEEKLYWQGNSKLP
The test can be described thus: Displacement of [3H]NMS from human muscarinic M5 receptor expressed in CHO cell membranes after 2 hrs by liquid scintillation counting method.

The target of test [7] is D(2) dopamine receptor (Homo sapiens, UniProt P14416). The experiment in a line: Displacement of [3H]N-methylspiperone from human dopamine D2 receptor expressed in HEK293 cell membranes after 1 hr by scintillation counting method.
The target of test [8] is D(3) dopamine receptor (Homo sapiens, UniProt P35462). The experiment in a line: Displacement of [3H]N-methylspiperone from human dopamine D3 receptor expressed in HEK293 cell membranes after 1 hr by scintillation counting method.
The target of test [9] is T5, Muscarinic acetylcholine receptor M4 (Homo sapiens, UniProt P08173).
T5 sequence (P08173 whole entry): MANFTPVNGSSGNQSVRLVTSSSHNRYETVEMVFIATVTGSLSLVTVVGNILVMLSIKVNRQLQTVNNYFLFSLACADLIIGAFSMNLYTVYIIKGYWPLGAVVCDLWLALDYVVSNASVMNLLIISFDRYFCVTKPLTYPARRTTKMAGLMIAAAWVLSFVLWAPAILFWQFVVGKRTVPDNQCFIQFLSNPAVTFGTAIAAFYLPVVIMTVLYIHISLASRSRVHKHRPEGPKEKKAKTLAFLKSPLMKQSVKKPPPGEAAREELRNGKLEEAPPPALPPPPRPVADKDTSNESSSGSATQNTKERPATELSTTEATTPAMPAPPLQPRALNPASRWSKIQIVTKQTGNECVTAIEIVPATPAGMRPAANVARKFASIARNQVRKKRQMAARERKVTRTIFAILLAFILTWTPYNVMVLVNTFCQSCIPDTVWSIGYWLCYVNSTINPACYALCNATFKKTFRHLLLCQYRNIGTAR
The experiment in a line: Displacement of [3H]NMS from human muscarinic M4 receptor expressed in CHO cell membranes after 2 hrs by liquid scintillation counting method.

Test [10] addresses T3, D(4) dopamine receptor. The test can be described thus: Antagonist activity at human SP/Myc epitope-tagged dopamine D4 receptor expressed in HEK293T cells assessed as inhibition of dopamine-induced mVenus-fused beta-arrestin2 recruitment preincubated for 15 mins followed by dopamine induction measured after 2 mins by BRET assay. Type of test: cell-based, HEK-293T.
For test [11], the target named is T3, D(4) dopamine receptor. The experiment in a line: Antagonist activity at human SP/Myc epitope-tagged dopamine D4 receptor expressed in HEK293T cells assessed as inhibition of dopamine-induced RLuc8-fused Galphai1 activation preincubated for 15 mins followed by dopamine induction measured after 2 mins by BRET assay. It counts as cell-based, HEK-293T.

pIC50, pKi: −log10 of the molar value. Where only a bound is given, the exact number is not on record here.

Muscarinic acetylcholine receptor M3, sequence (P20309 whole entry): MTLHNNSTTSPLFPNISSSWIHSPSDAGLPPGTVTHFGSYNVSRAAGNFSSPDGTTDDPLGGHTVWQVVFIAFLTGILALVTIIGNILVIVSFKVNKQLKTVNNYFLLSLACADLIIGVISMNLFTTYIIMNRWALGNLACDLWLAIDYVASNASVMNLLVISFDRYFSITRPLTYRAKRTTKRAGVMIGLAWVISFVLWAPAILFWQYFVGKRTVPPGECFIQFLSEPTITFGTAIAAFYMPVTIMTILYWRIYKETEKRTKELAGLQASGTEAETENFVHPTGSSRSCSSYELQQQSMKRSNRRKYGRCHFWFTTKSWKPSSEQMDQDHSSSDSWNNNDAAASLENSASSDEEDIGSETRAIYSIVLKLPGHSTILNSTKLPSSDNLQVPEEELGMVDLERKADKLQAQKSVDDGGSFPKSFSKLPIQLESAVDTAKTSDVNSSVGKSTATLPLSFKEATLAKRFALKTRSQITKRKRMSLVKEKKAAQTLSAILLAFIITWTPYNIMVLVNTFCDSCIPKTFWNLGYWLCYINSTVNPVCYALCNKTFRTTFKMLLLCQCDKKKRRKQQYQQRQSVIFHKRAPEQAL
D(2) dopamine receptor, sequence (P14416 whole entry): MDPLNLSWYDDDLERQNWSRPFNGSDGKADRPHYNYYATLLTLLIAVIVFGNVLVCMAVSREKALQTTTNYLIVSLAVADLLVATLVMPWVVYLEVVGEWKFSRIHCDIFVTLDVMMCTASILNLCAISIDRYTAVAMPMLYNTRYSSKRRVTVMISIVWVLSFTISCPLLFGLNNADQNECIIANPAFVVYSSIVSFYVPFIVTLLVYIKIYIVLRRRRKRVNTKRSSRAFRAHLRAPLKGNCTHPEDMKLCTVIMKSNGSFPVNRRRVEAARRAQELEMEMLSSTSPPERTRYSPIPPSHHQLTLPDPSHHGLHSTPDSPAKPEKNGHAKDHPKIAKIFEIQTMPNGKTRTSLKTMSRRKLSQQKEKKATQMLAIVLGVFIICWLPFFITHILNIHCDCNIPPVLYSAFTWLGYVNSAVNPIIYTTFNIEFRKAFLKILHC
D(3) dopamine receptor, sequence (P35462 whole entry): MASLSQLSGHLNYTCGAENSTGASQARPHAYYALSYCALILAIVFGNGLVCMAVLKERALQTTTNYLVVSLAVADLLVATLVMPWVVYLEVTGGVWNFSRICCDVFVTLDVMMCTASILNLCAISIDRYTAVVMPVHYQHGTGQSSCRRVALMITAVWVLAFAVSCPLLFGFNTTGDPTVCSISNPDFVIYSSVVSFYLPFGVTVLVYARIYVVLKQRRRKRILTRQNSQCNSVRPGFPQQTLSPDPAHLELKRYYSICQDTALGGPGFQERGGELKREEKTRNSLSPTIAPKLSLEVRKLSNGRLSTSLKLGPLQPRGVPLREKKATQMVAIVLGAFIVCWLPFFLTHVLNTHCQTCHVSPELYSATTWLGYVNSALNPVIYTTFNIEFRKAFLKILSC

As to `CC1CCN(CCCN2C(=O)CCc3ccccc32)CC1`, the pKi was 4.94 in [1]; 4.92 in test [3]; 4.85 in [4]; 6.59 in test [5]; 4.62 in test [6]; 5.35 in test [7]. Moreover, the pKi in [8] is 5.43; in [9], 5.03. Besides, the Ratio Ki in test [2] was determined as 17.
Regarding `CCCC1CCN(CCCN2C(=O)CCc3ccccc32)CC1`, the pKi in test [1] was 5.72; in [3], 5.60; in [4], 5.63; in [5] it was 8.28; in test [6], 5.71; in [7], 6.04. The pKi in [8] was 5.81; in test [9], 5.78. In addition, the Ratio Ki in [2] is 174.
`COc1ccc(Cl)cc1OC[C@@H]1CN(Cc2ccc(Cl)cc2)CCO1`: the Ratio Ki in [2] worked out at 48.
For the molecule `O=C1CCc2ccccc2N1CCCN1CCC(CCCCCCCO)CC1`, the Ratio Ki in [2] was 9. For the same molecule, the pKi is 7.00 in [5], 6.03 in test [7] and 6.02 in test [8].
In the case of `O=C1CCc2ccccc2N1CCCN1CCC(CCc2ccccc2)CC1`, the pKi is 6.69 in test [1]; 6.58 in test [3]; 6.30 in test [4]; 8.67 in [5]; 6.12 in test [6]; 6.54 in test [7]. For the same molecule, the pKi is 6.39 in test [8] and 6.70 in test [9]. Moreover, the Ratio Ki in test [2] turned out to be 135.
Turning to `O=C1CCc2ccccc2N1CCCN1CCC(c2ccccc2)CC1`, the pKi was 5.62 in [1]; 5.54 in test [3]; 5.33 in test [4]; 8.71 in test [5]; 5.69 in test [6]; 6.34 in [7]. The pKi in test [8] was 6.15; in [9], 5.89. Moreover, the Ratio Ki in test [2] stood at 234.
Consider `O=C1CCc2ccccc2N1CCCN1CCN(CCc2ccccc2)CC1`, for which the pKi in test [1] was 5.75; in [3], 5.64; in test [4], 5.18; in [5], 7.54; in [6], 5.10; in test [7], 5.24. For the same molecule, the pKi in test [8] was 5.40; in [9] it was 5.29. For the same molecule, in test [2], the Ratio Ki is 200.
Consider `O=C1CCc2ccccc2N1CCCN1CCC(CCCO)CC1`, for which, in [2], the Ratio Ki came out at 9. The results for the pKi in test [5], in test [7] and in test [8] were 7.13, 6.18 and 6.23, respectively.
On to `CCCCN1CCN(CCCN2C(=O)CCc3ccccc32)CC1`, for which the pKi in [1] was 5.38; in [3] it was 5.57; in test [4], 5.15; in [5], 6.50; in test [6] it was 5.04; in test [7], 5.29. Also, the pKi in test [8] was 5.41; in test [9], 5.50. Also, in test [2], the Ratio Ki is 16.
Regarding `O=C1CCc2ccccc2N1CCCN1CCC(CCCCCO)CC1`, the figures for the pIC50 in test [10] and in test [11] were 6.82 and 6.90, respectively. Also, the Ratio Ki in test [2] was determined as 269. Also, the pKi in test [5] is 8.36; in [7] it was 5.93; in [8], 6.17.
Regarding `COc1cccc(CCC2=NCCN2CCc2ccccc2)c1`, the Ratio Ki in test [2] is above 105. This molecule also showed a pKi in test [5] of 7.02.
Regarding `CCCCCC1CCN(CCCN2C(=O)CCc3ccccc32)CC1`, the pKi was 6.25 in [1]; 6.31 in test [3]; 5.87 in test [4]; 8.86 in test [5]; 5.45 in test [6]; 6.28 in test [7]. Moreover, the results for the pKi in test [8] and in test [9] were 6.55 and 6.24, respectively. In addition, the Ratio Ki in test [2] stood at 380.
As for `CC(C)Oc1cccnc1N(C)C1CCN(Cc2ccc(I)cc2)CC1`, in test [2], the Ratio Ki came out at 1720.
